The target of assay [1] is T1, Sa YpdA (Bdr) (Staphylococcus aureus, UniProt A0A0H2WWS2).
T1 construct: gene SACOL1520; expressed and purified; FAD-containing; biological homotetramer; tag details only in supplement
T1 sequence (A0A0H2WWS2 1-328): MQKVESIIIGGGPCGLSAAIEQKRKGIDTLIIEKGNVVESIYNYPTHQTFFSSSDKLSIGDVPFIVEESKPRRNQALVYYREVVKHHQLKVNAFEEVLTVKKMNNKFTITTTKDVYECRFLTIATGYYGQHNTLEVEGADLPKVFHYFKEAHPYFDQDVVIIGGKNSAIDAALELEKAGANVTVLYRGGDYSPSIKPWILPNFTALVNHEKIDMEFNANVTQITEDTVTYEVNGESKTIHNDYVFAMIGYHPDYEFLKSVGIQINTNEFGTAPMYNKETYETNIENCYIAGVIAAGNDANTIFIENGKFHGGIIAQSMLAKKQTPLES
Kind of assay: X-ray crystallography. It is filed as binding.

In assay [2] the target is T2, Bc YpdA (Bdr) (Bacillus cereus, UniProt Q81FS4).
T2 construct: gene BC_1495; expressed and purified; FAD-containing; biological homotetramer; tag details only in supplement
T2 sequence (Q81FS4 1-326): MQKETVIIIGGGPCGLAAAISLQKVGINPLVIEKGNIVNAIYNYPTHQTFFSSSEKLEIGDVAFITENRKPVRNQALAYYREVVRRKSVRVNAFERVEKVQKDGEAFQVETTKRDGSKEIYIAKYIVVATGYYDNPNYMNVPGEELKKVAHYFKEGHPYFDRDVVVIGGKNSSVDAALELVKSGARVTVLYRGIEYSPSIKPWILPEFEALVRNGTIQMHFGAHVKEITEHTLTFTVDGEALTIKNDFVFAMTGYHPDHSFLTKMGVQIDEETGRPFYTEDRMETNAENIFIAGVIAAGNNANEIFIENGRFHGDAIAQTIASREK
Kind of assay: NADPH consumption at […] nm. It is filed as biochemical. As to conditions: anaerobic.

In assay [3] the target is T1, Sa YpdA (Bdr). In words: NADPH consumption at […] nm. Particulars: NADPH as co-substrate; anaerobic. It is filed as biochemical.

Turning to `NC(=O)C1=CN([C@@H]2O[C@H](COP(=O)(O)OP(=O)(O)OC[C@H]3O[C@@H](n4cnc5c(N)ncnc54)[C@H](OP(=O)(O)O)[C@@H]3O)[C@@H](O)[C@H]2O)C=CC1` [NADPH], the X-ray crystallography entry in assay [1] (NADPH not added, co-purified, bound in chains C, D and F, FAD present) was “we observed in both Sa YpdA structures electron density for bound NADPH”. The “NADPH consumption at 340 nm” value in assay [2] (BSSB as co-substrate) was “both Sa and Bc YpdAs can reduce BSSB with a rate of consumption of NADPH”. For the compound `N[C@@H](CSSC[C@H](N)C(=O)N[C@H]1[C@@H](O[C@@H](CC(=O)O)C(=O)O)O[C@H](CO)[C@@H](O)[C@@H]1O)C(=O)N[C@H]1[C@@H](O[C@@H](CC(=O)O)C(=O)O)O[C@H](CO)[C@@H](O)[C@@H]1O` [BSSB], the “NADPH consumption at 340 nm” value in assay [2] (NADPH as co-substrate) was “YpdAs from Bc and Sa are both able to reduce BSSB”; in assay [3], “YpdAs from Bc and Sa are both able to reduce BSSB”. For the compound `Cc1cc2nc3c(=O)[nH]c(=O)nc-3n(C[C@H](O)[C@H](O)[C@H](O)COP(=O)(O)OP(=O)(O)OC[C@H]3O[C@@H](n4cnc5c(N)ncnc54)[C@H](O)[C@@H]3O)c2cc1C` [FAD], in assay [1] (bound cofactor, 2.9 and 3.1 A resolution), the X-ray crystallography entry is “Monomer structure alignment of Bc and Sa YpdA, displaying the NADPH and FAD binding domains”.

The record behind these values is article PMC7774306, “The Crystal Structures of Bacillithiol Disulfide Reductase Bdr (YpdA) Provide Structural and Functional Insight into a New Type of FAD-Containing NADPH-Dependent Oxidoreductase” (Biochemistry, 2020).
